Consider 8 molecules from PMC6832352, “Synthesis and Glycosidase Inhibition of Broussonetine M and Its Analogues” (Molecules, 2019).

Structures are written as SMILES. Bounds are passed on as bounds.

Common to all, as to type: biochemical
The target in one experiment is T1, α-Glucosidase (Oryza sativa subsp. japonica, UniProt Q653V7).
T1 construct: purchased Sigma-Aldrich Chemical Co
Kind of experiment: glycosidase inhibition assay, rice α-glucosidase. The conditions noted are these: for inhibition at 100 µM: α-Glucosidase, Rice. Here is the method:
(§1) With rat intestinal maltase as an exception, other enzymes were purchased from Sigma-Aldrich Chemical Co. (St. Louis, Mo. USA). Brush border membranes prepared from rat small intestine according to the method of Kessler et al. were assayed at pH 6.8 for rat intestinal maltase using maltose. The released D-glucose was determined colorimetrically using the Glucose CII-test Wako (Wako Pure Chemical Ind.; Osaka, Japan). Other glycosidase activities were determined using an appropriate p-nitrophenyl glycoside as substrate in a buffer solution at the optimal pH value of each enzyme. The reaction was stopped by adding 400 mM Na2CO3. The released p-nitrophenol was measured spectrometrically at 400 nm.

The target of the next experiment is Rat intestinal maltase. Kind of experiment: rat intestinal maltase inhibition (brush border membranes, maltose). The settings on record: for inhibition %: at 100 μM. Here is the method:
as §1

A further experiment has as its target β-Galactosidase. The experiment is described as follows: glycosidase inhibition assay, bovine liver β-galactosidase. Here is the method:
as §1

Another experiment deals with T2, α-L-Fucosidase (Bos taurus, UniProt Q2KIM0).
T2 construct: purchased Sigma-Aldrich Chemical Co; host or cells: bovine kidney
T2 sequence (Q2KIM0 23-468): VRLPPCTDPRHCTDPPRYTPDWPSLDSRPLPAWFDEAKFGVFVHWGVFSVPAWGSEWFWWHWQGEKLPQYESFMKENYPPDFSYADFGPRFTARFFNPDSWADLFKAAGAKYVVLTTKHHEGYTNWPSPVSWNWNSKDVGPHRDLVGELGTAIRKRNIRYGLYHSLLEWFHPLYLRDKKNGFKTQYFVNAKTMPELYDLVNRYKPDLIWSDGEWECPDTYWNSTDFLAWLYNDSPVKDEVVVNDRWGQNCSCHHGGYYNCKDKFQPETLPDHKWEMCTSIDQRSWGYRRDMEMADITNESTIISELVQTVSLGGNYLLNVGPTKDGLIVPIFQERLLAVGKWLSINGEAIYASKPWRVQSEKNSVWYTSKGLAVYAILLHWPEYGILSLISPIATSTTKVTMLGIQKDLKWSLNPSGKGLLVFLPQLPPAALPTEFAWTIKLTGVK
Kind of experiment: glycosidase inhibition assay, bovine kidney α-L-fucosidase. Here is the method: as §1

A further experiment has as its target T3, α,α-Trehalase (Sus scrofa, UniProt I3LIR5).
T3 sequence (I3LIR5 24-556): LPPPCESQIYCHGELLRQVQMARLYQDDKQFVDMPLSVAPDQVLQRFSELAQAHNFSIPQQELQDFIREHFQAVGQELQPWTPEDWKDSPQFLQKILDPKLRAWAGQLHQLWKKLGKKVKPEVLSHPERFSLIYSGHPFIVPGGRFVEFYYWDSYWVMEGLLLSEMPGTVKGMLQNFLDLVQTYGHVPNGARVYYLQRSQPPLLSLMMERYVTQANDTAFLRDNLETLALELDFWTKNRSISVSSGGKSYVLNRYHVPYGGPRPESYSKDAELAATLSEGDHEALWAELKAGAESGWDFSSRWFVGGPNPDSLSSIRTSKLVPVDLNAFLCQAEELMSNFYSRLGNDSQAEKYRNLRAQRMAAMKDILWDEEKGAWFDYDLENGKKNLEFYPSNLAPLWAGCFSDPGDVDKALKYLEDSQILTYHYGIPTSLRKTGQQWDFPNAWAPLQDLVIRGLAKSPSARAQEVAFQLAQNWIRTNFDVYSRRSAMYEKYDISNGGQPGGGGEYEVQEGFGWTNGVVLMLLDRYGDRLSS
Kind of experiment: glycosidase inhibition assay, porcine kidney α,α-trehalase. Here is the method: as §1

For experiment [1], the target named is T4, β-Glucuronidase (Escherichia coli, UniProt P05804).
T4 construct: purchased Sigma-Aldrich Chemical Co
T4 sequence (P05804 whole entry): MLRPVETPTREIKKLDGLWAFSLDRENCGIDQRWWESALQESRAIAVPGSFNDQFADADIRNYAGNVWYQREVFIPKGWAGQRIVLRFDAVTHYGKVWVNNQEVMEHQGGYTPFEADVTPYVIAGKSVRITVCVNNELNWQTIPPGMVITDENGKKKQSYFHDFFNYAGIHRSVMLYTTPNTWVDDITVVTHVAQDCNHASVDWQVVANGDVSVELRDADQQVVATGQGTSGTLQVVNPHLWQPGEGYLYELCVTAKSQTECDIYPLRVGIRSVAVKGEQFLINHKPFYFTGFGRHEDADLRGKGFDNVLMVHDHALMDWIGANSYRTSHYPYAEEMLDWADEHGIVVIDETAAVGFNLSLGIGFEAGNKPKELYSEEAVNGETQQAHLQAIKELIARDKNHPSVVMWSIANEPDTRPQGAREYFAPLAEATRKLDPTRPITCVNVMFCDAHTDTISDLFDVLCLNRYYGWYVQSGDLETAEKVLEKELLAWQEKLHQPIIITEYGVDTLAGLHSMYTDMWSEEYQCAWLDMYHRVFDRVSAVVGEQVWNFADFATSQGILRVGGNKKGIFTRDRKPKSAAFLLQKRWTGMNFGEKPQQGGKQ
The experiment is described as follows: glycosidase inhibition assay, E. coli β-glucuronidase. Here is the method: as §1

For experiment [2], the target named is T5, β-Glucuronidase (Bos taurus, UniProt A3KMY8).
T5 construct: purchased Sigma-Aldrich Chemical Co; host or cells: bovine liver
T5 sequence (A3KMY8 1-652): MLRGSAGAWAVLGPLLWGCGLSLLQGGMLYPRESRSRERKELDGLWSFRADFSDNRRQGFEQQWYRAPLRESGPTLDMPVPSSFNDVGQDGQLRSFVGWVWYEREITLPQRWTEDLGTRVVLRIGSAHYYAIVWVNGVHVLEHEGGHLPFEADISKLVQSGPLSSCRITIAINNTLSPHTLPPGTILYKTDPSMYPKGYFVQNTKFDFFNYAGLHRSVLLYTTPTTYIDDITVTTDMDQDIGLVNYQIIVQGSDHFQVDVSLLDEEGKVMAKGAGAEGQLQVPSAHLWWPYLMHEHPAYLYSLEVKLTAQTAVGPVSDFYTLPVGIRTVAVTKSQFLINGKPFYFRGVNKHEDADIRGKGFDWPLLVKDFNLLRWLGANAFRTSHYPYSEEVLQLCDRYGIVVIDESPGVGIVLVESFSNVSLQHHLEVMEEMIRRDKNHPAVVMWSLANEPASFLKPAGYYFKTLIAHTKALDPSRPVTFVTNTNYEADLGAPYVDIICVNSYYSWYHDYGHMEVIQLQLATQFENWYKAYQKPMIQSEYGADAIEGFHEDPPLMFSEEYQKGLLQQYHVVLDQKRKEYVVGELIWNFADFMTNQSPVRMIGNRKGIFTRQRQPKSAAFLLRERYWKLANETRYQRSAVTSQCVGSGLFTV
Kind of experiment: glycosidase inhibition assay, bovine liver β-glucuronidase. The settings on record: for IC50: β-Glucuronidase, Bovine liver. Here is the method: as §1

T1 sequence (Q653V7 34-885): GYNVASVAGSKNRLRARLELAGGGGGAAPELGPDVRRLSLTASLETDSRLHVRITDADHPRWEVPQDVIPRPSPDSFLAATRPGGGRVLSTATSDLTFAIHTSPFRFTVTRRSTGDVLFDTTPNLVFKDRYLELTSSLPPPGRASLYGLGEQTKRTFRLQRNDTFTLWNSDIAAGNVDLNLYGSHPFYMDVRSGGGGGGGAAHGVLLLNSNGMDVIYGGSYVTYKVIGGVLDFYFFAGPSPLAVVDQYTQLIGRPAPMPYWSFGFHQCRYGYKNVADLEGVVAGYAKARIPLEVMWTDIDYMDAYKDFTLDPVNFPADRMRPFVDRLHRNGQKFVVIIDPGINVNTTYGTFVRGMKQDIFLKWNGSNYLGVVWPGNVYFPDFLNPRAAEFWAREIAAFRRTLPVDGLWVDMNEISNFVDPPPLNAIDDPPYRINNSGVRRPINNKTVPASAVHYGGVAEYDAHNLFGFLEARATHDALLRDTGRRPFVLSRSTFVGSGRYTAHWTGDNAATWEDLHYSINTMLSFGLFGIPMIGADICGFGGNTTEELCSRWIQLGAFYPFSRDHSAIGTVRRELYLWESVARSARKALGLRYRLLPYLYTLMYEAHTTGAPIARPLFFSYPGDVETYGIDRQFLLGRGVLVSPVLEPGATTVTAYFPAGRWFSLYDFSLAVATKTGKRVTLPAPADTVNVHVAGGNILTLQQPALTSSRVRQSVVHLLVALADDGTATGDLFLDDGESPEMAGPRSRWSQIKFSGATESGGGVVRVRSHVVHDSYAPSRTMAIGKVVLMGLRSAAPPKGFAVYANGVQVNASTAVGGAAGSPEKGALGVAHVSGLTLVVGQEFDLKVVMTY

On to `OCCCC(O)CCCCCCCCCC1NC(CO)C(O)C1O` [2,10-di-epi-3, (2S,3R,4R,5R)-2-hydroxymethyl-3,4-dihydroxyl-5-((10S)-10,13-(dihydroxyl)dec-1-yl) pyrrolidine], for which the IC50 is 12 µM against α-Glucosidase; 1.4 µM against Rat intestinal maltase; 13 µM on β-Galactosidase; > 100 µM at α-L-Fucosidase; 80 µM on β-Glucuronidase [1]; > 100 µM at β-Glucuronidase [2]. Besides, the inhibition at 100 µM at α-L-Fucosidase amounted to 10.8%; against α,α-Trehalase, 0%; at β-Glucuronidase [2], 1.7%.

As to `OCCC[C@@H](O)CCCCCCCCC[C@H]1N[C@@H](CO)[C@@H](O)[C@@H]1O` [2-epi-3, (2S,3R,4R,5R)-2-hydroxymethyl-3,4-dihydroxyl-5-((10R)-10,13-(dihydroxyl)dec-1-yl) pyrrolidine], the IC50 against α-Glucosidase was > 100 µM; against Rat intestinal maltase it was > 100 µM; at β-Galactosidase it was 7.4 µM; against α-L-Fucosidase, > 100 µM; against β-Glucuronidase [1] it was 73 µM; at β-Glucuronidase [2], > 100 µM. In addition, the inhibition at 100 µM amounted to 5.6% at α-Glucosidase, 4.3% against α-L-Fucosidase, 0% against α,α-Trehalase and 5.2% on β-Glucuronidase [2]. In addition, the inhibition % with Rat intestinal maltase turned out to be 16.8%.

As to `OCCC[C@H](O)CCCCCCCCC[C@H]1N[C@H](CO)[C@@H](O)[C@@H]1O` [10’-epi-3, (2R,3R,4R,5R)-2-hydroxymethyl-3,4-dihydroxyl-5-((10S)-10,13-(dihydroxyl)dec-1-yl) pyrrolidine], the IC50 against α-Glucosidase was > 100 µM; against Rat intestinal maltase, > 100 µM; at β-Galactosidase, 0.2 µM; at α-L-Fucosidase it was > 100 µM; against β-Glucuronidase [1] it was 20 µM; against β-Glucuronidase [2], > 100 µM. Further, the inhibition at 100 µM amounted to 0% on α-Glucosidase, 0% on α-L-Fucosidase, 0% on α,α-Trehalase and 17.2% at β-Glucuronidase [2]. In the experiment with Rat intestinal maltase, this molecule displayed an inhibition % of 26.4%.

On to `OCCC[C@@H](O)CCCCCCCCC[C@H]1N[C@H](CO)[C@@H](O)[C@@H]1O` [compound 3, (2R,3R,4R,5R)-2-hydroxymethyl-3,4-dihydroxyl-5-((10R)-10,13-(dihydroxyl)dec-1-yl)pyrrolidine], for which the IC50 is > 100 µM on α-Glucosidase; > 100 µM against Rat intestinal maltase; 2.3 µM against β-Galactosidase; > 100 µM on α-L-Fucosidase; 86 µM at β-Glucuronidase [1]; > 100 µM against β-Glucuronidase [2]. Further, the inhibition at 100 µM against α-Glucosidase amounted to 0%; against α-L-Fucosidase, 0%; at α,α-Trehalase, 0%; on β-Glucuronidase [2], 18.4%. The molecule further showed an inhibition % with Rat intestinal maltase of 0%.

With `OCCC[C@@H](O)CCCCCCCCC[C@@H]1N[C@@H](CO)[C@@H](O)[C@H]1O` [ent-3,10-di-epi-3], the IC50 against α-Glucosidase is > 100 µM; at Rat intestinal maltase it was 84 µM; at β-Galactosidase, 31 µM; against α-L-Fucosidase, 98 µM; on β-Glucuronidase [1], 42 µM; against β-Glucuronidase [2], > 100 µM. The inhibition at 100 µM was 9.5% against α-Glucosidase, 3.8% at α,α-Trehalase and 14.9% against β-Glucuronidase [2].

As to `OCCC[C@H](O)CCCCCCCCC[C@@H]1N[C@@H](CO)[C@H](O)[C@H]1O` [ent-3, (2S,3S,4S,5S)-2-hydroxymethyl-3,4-dihydroxyl-5-((10S)-10,13-(dihydroxyl)dec-1-yl) pyrrolidine], the IC50 against α-Glucosidase is 1.2 µM; at Rat intestinal maltase it was 0.29 µM; against β-Galactosidase, 50 µM; against α-L-Fucosidase it was > 100 µM; at β-Glucuronidase [1], > 100 µM; on β-Glucuronidase [2], > 100 µM. For the same molecule, the inhibition at 100 µM against α-L-Fucosidase came to 0%; against α,α-Trehalase it was 2.1%; at β-Glucuronidase [1], 44.3%; on β-Glucuronidase [2], 2.3%.

Turning to `OCCC[C@H](O)CCCCCCCCC[C@@H]1N[C@@H](CO)[C@@H](O)[C@H]1O` [ent-3-epi-3, (2S,3R,4S,5S)-2-hydroxymethyl-3,4-dihydroxyl-5-((10S)-10,13-(dihydroxyl)dec-1-yl) pyrrolidine], the half-inhibitory concentration (IC50) at α-Glucosidase was > 100 µM; at Rat intestinal maltase, 42 µM; at β-Galactosidase it was 41 µM; on α-L-Fucosidase it was 50 µM; at β-Glucuronidase [1] it was > 100 µM; against β-Glucuronidase [2] it was > 100 µM. Moreover, the inhibition at 100 µM was 23% at α-Glucosidase, 0% on α,α-Trehalase, 28.7% against β-Glucuronidase [1] and 0% on β-Glucuronidase [2].

Take `OCCC[C@@H](O)CCCCCCCCC[C@@H]1N[C@@H](CO)[C@H](O)[C@H]1O` [ent-10’-epi-3]: the IC50 was 1.3 µM against α-Glucosidase; 9 µM against β-Galactosidase; > 100 µM on α-L-Fucosidase; > 100 µM on β-Glucuronidase [1]; > 100 µM against β-Glucuronidase [2]. Further, the inhibition at 100 µM at α-L-Fucosidase worked out at 6.1%; on α,α-Trehalase it was 0%; on β-Glucuronidase [1], 36.2%; against β-Glucuronidase [2], 14.9%.
